# Measurements as given in patent publication US11987555B2, “Malassezin and analogs thereof as skin brightening agents” (Versicolor Technologies, LLC, priority 2016, dated 2024).
# Where two headings read alike, the source gives them in different places.
# What was measured:
# [1] = tested on: WM115 cells; test: Additional annexin V assay (3 doses, 6-72 hours); format: cell-based; conditions: 6 hours, doses 100, 10, 1 μM
# Description: (§1) To further investigate the impact of test compounds on apoptosis, multiple readouts, covering different stages of apoptosis, were carried out on both MeWo and WM115 cells. Both cell types were treated with test compounds at 3 doses (100 μM, 10 μM, and 1 μM). Staurosporine was used as a positive control. […] The test compounds evaluated were CV-8684, CV-8685, and CV-8688.
# (§2) Cell seeding was performed as discussed above with the following exceptions: the final cell density was 4,000 cells/well for 6-hour and 24-hour detections, whereas 2,000 cells/well were used for 48-hour and 72-hour detections. For each time point, 384-well clear bottom plates (Corning 3712) and solid white bottom plates (Corning 3570) were prepared. The plates were incubated as discussed above.
# (§3) For preparation of the compound source plate, each test compound was dissolved in DMSO to 10 mM stock. Two additional concentrations were generations by 10-fold dilution to 1 mM and 0.1 mM. Staurosporine was used as positive control and 1% DMSO was employed as vehicle (negative) control. The compound source plate was spun at room temperature at 1,000 RPM for 1 minute and agitated using a plate shaker for 2 minutes.
# (§4) 400 nL of test compound was transferred from the compound source plate to 384-well culture plates using Echo550 liquid handler. After 6, 24, 48, and 72 hours, the plates were removed from the incubator for detections.
# (§5) Culture media was removed and cells were washed twice with PBS. 20 μL of pre-mixed annexin V-FITC working solution was added to each well. The cells were incubated at room temperature for 20 minutes. Plates were read using Acumen eX3 to count the number of FITC-positive cells.
# [2] = tested on: MeWo cells; test: Additional annexin V assay (3 doses, 6-72 hours); format: cell-based; conditions: 6 hours, doses 100, 10, 1 μM
# Description: as §1, §2, §3, §4, §5
# [3] = tested on: MeWo cells; test: Lactate dehydrogenase (LDH) release assay; conditions: after 72-hour incubation
# Description: (§16) The LDH assay quantitatively measures lactate dehydrogenase (“LDH”) released into the media from damaged cells as a biomarker for cytotoxicity and cytolysis.
# (§17) CytoTox-ONE™ Homogenous Membrane Integrity Assay was purchased from Promega.
# (§18) For the LDH release assay, plates were removed from the incubator and equilibrated at room temperature for 15 minutes. Plates were then centrifuged at 1,000 RPM for 1 minute. 20 μL of cell culture medium was transferred into a new 384-well black solid plate. Then, 20 μL of CytoTOX-ONE™was added into each well and incubated at room temperature for 10 minutes. Afterward, 10 μL of stop solution were added to each well, and the plates were agitated at 500 rpm for 1 minute. Plates were read using an excitation wavelength of 560 nm and an emission wavelength of 590 nm on EnSpire. The relative activity was calculated according to the following formula: Relative Activity (%)=100%×(Lumsample−Lumbkg)/(Lumvehicle−Lumbkg).
# [4] = tested on: primary human melanocytes; conditions: Krämer, et al., 2005; cited from earlier work
# [5] = tested on: MeWo cells; test: Cell morphology after treatment (micrographs); format: cell-based; conditions: 100 μM of test compound, 6 hours
# Description: FIGS. 5A-5K are micrographs showing MeWo cell morphology after 6 hours of treatment with various concentrations of CV-8684, CV-8685, CV-8688, DMSO, and staurosporine.
# (§6) Typical cell morphology after various treatments is shown in FIGS. 5A-5K, 6A-6K, 7A-7K, 8A-8K, 9A-9K, 10A-10K, 11A-11K, and 12A-12K.
# [6] = tested on: WM115 cells; test: Lactate dehydrogenase (LDH) release assay; conditions: after 72-hour incubation
# Description: as §16, §17, §18
# [7] = tested on: WM115 cells; test: Cell morphology after treatment (micrographs); format: cell-based; conditions: 100 μM of test compound, 6 hours
# Description: FIGS. 9A-9K are micrographs showing WM115 cell morphology after 6 hours of treatment with various concentrations of CV-8684, CV-8685, CV-8688, DMSO, and staurosporine.
# as §6
# [8] = tested on: MelanoDerm™ Skin Model; test: MelanoDerm assay, visual pigmentation; format: cell-based, human; conditions: day 7; 200 μM and 50 μM, topical every 48 hours
# Description: FIGS. 16A-16K are photographs of MelanoDerm™ matrices at either day 0 or day 7 after exposure to no treatment (FIG. 16A), sterile deionized water (FIG. 16B), 1% kojic acid (FIG. 16C), 0.2% DMSO (FIG. 16D), 0.05% DMSO (FIG. 16E), 200 μM CV-8684 (FIG. 16F), 50 μM CV-8684 (FIG. 16G), 200 μM CV-8686 (FIG. 16H), 50 μM CV-8686 (FIG. 16I), 200 μM CV-8688 (FIG. 16J), and 50 μM CV-8688 (FIG. 16K).
# The MelanoDerm™ Skin Model provided by MatTek Corporation (Ashland, MA) will be used in this study. The MelanoDerm™ tissue consists of normal, human-derived epidermal keratinocytes (NHEKs) and melanocytes (NHMs) which have been cultured to form a multilayered, highly differentiated model of the human epidermis. The NHMs within co-cultures undergo spontaneous melanogenesis leading to tissues of varying levels of pigmentation. The cultures are grown on cell culture inserts at the air-liquid interface, allowing for topical application of skin modulators. […]
# At the end of the 7-day trial, the MelanoDerm™ tissues dosed with the negative or positive control, and with each test article will be photographed using a digital camera to aid in the visual assessment of the degree of pigmentation of the tissues at the end of the assay (Day 7). […] Then, the viability of the tissues will be determined by MTT reduction as indicated below.
# [9] = target: T1, arylhydrocarbon receptor (AhR) (Homo sapiens, UniProt P35869); conditions: Wille et al., 2001; cited from earlier work
# T1 sequence (P35869 11-848): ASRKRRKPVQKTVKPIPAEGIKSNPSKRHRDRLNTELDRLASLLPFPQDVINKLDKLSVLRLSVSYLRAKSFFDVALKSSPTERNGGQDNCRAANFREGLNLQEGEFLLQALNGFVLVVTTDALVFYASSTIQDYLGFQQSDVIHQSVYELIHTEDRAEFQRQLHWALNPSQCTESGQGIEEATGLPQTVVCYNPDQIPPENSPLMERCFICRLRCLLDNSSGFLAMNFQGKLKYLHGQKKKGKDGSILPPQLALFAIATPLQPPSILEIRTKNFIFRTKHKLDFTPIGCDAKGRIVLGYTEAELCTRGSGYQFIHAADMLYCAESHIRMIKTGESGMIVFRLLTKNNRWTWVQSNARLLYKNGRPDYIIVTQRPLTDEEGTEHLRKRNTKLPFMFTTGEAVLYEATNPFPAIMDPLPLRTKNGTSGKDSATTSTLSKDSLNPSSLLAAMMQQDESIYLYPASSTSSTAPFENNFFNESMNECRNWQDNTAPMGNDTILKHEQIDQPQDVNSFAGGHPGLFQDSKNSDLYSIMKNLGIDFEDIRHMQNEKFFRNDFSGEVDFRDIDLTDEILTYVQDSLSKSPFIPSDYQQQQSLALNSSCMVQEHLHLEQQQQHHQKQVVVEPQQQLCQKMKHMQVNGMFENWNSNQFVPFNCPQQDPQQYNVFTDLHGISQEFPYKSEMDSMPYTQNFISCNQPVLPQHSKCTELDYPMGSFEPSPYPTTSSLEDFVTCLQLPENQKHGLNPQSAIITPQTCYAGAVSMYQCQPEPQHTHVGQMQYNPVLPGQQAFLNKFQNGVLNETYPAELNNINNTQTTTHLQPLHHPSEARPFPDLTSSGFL
# [10] = tested on: WM115 cells; test: CellTiter-Glo cell viability assay; format: cell-based; conditions: doses 100, 10, 1 μM, 6-72 hours
# Description: (§7) CellTiter-Glo® 2.0 assay was purchased from Promega.
# (§8) CellTiter-Glo® reagents were thawed and equilibrated to room temperature before the experiment. 40 μL of CellTiter-Glo® reagent was then added to each well for detection (at 1:1 ratio to culture medium). The plates were then incubated at room temperature for 30 minutes and read using EnSpire (PerkinElmer) plate reader. The remaining activity was calculated according to the following formula: Remaining Activity (%)=100%×(Lumsample−Lumbkg)/(Lumvehicle−Lumbkg).
# [11] = tested on: MeWo cells; test: CellTiter-Glo cell viability assay; format: cell-based; conditions: doses 100, 10, 1 μM, 6-72 hours
# Description: as §7, §8
# [12] = tested on: MeWo cells; test: Preliminary annexin V assay; format: cell-based; conditions: 6-hour treatment, preliminary screen
# Excerpt: (§9) MeWo (ATCC® HTB-65™) and WM115 (ATCC® CRL-1675) cells were purchased from ATCC (Manassas, VA) and maintained in the following: for MeWo: DMEM supplemented with 10% FBS; for WM115: RPMI 1640 supplemented with 10% FBS (10% FBS, 1% stabilized antibiotic anti-mycotic solution).
# (§10) In the […] stages of apoptosis, phosphatidylserine (“PS”) is translocated from the inner to the outer leaflet of the cell membrane, exposing PS to the extracellular environment, where it can be detected. Highly fluorescent annexin V conjugates provide quick and reliable detection methods for studying the externalization of PS.
# (§11) During the first set of studies, both MeWo and WM115 cells were treated with test compounds at 10 doses starting from 100 μM with 3-fold dilution. Staurosporine was used as positive control. After 6-hour treatment, cell apoptosis was assessed using an annexin V assay. The test compounds evaluated were CV-8684, CV-8685, CV-8686, CV-8687, and CV-8688.
# (§12) For cell seeding, cells were harvested and the cell number was determined using Countess® cell counter. Cells were then diluted with culture medium to the desired density. 40 μL of cell suspension per well was added to the required number of wells in a 384-well plate (Corning 3712—clear bottom plate). The final cell density was 6,000 cells/well. After plating, the plates were incubated at 37° C. and 5% CO2 overnight.
# (§13) For preparation of compound source plate, each test compound was dissolved in DMSO to 10 mM stock. 3-fold serial dilution was performed using an EVO200™ liquid handler (TECAN) to generate ten concentrations of test compound. 0.1% DMSO was employed as vehicle (negative) control. The compound source plate was then spun at room temperature at 1,000 RPM for 1 minute and agitated using a plate shaker for 2 minutes.
# (§14) For compound treatment, 40 nL of compound were transferred from the compound source plate to the 384-well culture plate using liquid handler Echo550 (LabCyte Inc.). After 6-hour incubation, the plates were removed from the incubator for detection.
# (§15) For the preliminary annexin V assay, the plates were removed from the incubator and allowed to equilibrate at room temperature for 15 minutes. Culture media was then removed. 20 μL of pre-mixed annexin V-FITC and Hoechst33342 dye working solution were added to each well. The cells were then incubated at room temperature for 20 minutes. The plates were sealed and centrifuged for 1 minute at 1,000 RPM to remove bubbles. Afterward, the plate was read using an Acumen eX3 plate reader.
# [13] = tested on: WM115 cells; test: Preliminary annexin V assay; format: cell-based; conditions: 6-hour treatment, preliminary screen
# Excerpt: as §9, §10, §11, §12, §13, §14, §15
# [14] = CellTiter-Glo cell viability assay; format: cell-based; conditions: human, after 24-hour treatment, read-out: inhibition of cell viability
# Description: as §7, §8
Structure (SMILES),apoptosis induction (annexin V) [1],apoptosis induction (annexin V) [2],LDH release [3],apoptosis induction [4],cell morphology [5],LDH release [6],cell morphology [7],pigmentation of MelanoDerm tissues [8],AhR agonist activity [9],inhibition of cell viability [10],inhibition of cell viability [11],annexin V staining [12],EC50 ([12]; read-out: EC50 of annexin V staining),annexin V staining [13],cytotoxicity at 24 h ([14]; MeWo),cytotoxicity at 24 h ([14]; WM115)
"O=Cc1c(Cc2c[nH]c3ccccc23)[nH]c2ccccc12 [CV-8684, 2-(1H-indol-3-ylmethyl)-1H-indole-3-carbaldehyde]",induced apoptosis at the highest concentration tested,induced apoptosis at the highest concentration tested,did not induce significant release,induces apoptosis,significantly affected,did not induce significant release,significantly affected,reduced pigmentation,known agonist,dose-dependent inhibition of cell viability,dose-dependent inhibition of cell viability,,,,,
CC(c1[nH]c2ccccc2c1C=O)c1c[nH]c2ccccc12 (centres unmarked) [CV-8688],showed the induction effect within 6 hours of treatment in a dose-dependent manner,showed the induction effect within 6 hours of treatment in a dose-dependent manner,,,significantly affected,,significantly affected,reduced pigmentation,,inhibited viability of both cell types in a dose-dependent manner,inhibited viability of both cell types in a dose-dependent manner,markedly increased,0.909 µM,,,
"CN[C@@H]1C[C@H]2O[C@@](C)([C@@H]1OC)n1c3ccccc3c3c4c(c5c6ccccc6n2c5c31)C(=O)NC4 [Staurosporine, reference compound]",,,,,significantly affected,,significantly affected,,,,,greatly increased,,greatly increased,100%,100%
